Experimental data reported in ChEMBL document CHEMBL1795233, “The geranyl-modified tryptophan residue is crucial for ComXRO-E-2 pheromone biological activity” (Bioorg Med Chem Lett, 2011).
*1 amine or outer side, *2 acyl side, *3 side chain or, on linkers, in order; H or OH if unused. Where a SMILES comes first, the peptide text is derived from it. [ ]: non-standard residue; d: D form. X2 = CC(C)=CCC/C(C)=C/CC/C(C)=C/C[C@]12C[C@@H](C(=O)[*:2])N([*:1])[C@H]1Nc1ccccc12; X4 = CC(C)=CCC/C(C)=C/C[C@]12C[C@@H](C(=O)[*:2])N([*:1])[C@H]1Nc1ccccc12; X1 = C/C(=C\C[C@]12C[C@@H](C(=O)[*:2])N([*:1])[C@H]1Nc1ccccc12)CCCC(C)C; X3 = CC(C)=CC[C@]12C[C@@H](C(=O)[*:2])N([*:1])[C@H]1Nc1ccccc12

Key:
[1] = system: Bacillus subtilis; test: Effect on quorum sensing-mediated genetic competence in Bacillus subtilis expressing srfA-lacZ fusion assessed as concentration required to show same activity at EC25 of ComXRO-E-2 pheromone after 5 hrs by beta-galactosidase assay
[2] = Effect on quorum sensing-mediated genetic competence in Bacillus subtilis expressing srfA-lacZ fusion assessed as concentration required to show same activity at EC50 of ComXRO-E-2 pheromone after 5 hrs by beta-galactosidase assay
[3] = system: Bacillus subtilis; test: Effect on quorum sensing-mediated genetic competence in Bacillus subtilis expressing srfA-lacZ fusion assessed as maximum activity after 5 hrs by beta-galactosidase assay relative to ComXRO-E-2 pheromone

Row | SMILES | EC25 [1] [nM] | EC50 [2] [nM] | Emax [3] [%]
1 | CC(C)=CCC/C(C)=C/C[C@]12C[C@@H](C(=O)N[C@@H](C)C(=O)O)N(C(=O)[C@H](C)N)[C@H]1Nc1ccccc12 | > 300 | > 300 | 15
2 | CC(C)=CCC/C(C)=C/C[C@]12C[C@@H](C(N)=O)N(C(=O)c3ccccc3)[C@H]1Nc1ccccc12 | > 300 | > 300 | 0
3 | CC[C@H](C)[C@H](NC(=O)CN)C(=O)N[C@@H](Cc1ccccc1)C(=O)N1[C@H]2Nc3ccccc3[C@@]2(CCC(C)CCCC(C)C)C[C@H]1C(=O)N[C@@H](CCC(=O)O)C(=O)N[C@@H](CCC(N)=O)C(=O)O (mixture of isomers) | 200 | > 300 | 40
4 | CC(C)=CCC/C(C)=C/C[C@]12C[C@@H](C(=O)N[C@@H](C)C(=O)O)N(C(=O)[C@@H](N)CC(N)=O)[C@H]1Nc1ccccc12 | > 300 | > 300 | 5
5 | CC(C)=CCC/C(C)=C/C[C@]12C[C@@H](C(=O)N[C@@H](C)C(=O)O)N(C(=O)[C@@H](N)CC(C)C)[C@H]1Nc1ccccc12 | > 300 | > 300 | 20
6 | CC(C)=CCC/C(C)=C/C[C@]12C[C@@H](C(=O)N[C@@H](CCC(=O)O)C(=O)O)N(C(=O)[C@H](C)N)[C@H]1Nc1ccccc12 | > 300 | > 300 | 20
7 | CC[C@H](C)[C@H](NC(=O)CN)C(=O)N[C@@H](Cc1ccccc1)C(=O)N1[C@H]2Nc3ccccc3[C@@]2(CC=C(C)C)C[C@H]1C(=O)N[C@@H](CCC(=O)O)C(=O)N[C@@H](CCC(N)=O)C(=O)O (H-GIF[X3]EQ-OH) | > 300 | > 300 | 0
8 | CC(C)=CCC/C(C)=C/C[C@]12C[C@@H](C(=O)N[C@@H](C)C(=O)O)N(C(=O)[C@@H]3CCCN3)[C@H]1Nc1ccccc12 | > 300 | > 300 | 5
9 | CC(C)=CCC/C(C)=C/C[C@]12C[C@@H](C(=O)NCC(=O)O)N(C(=O)C(N)Cc3ccccc3)[C@H]1Nc1ccccc12 (single isomer, unassigned) | 200 | > 300 | 40
10 | CC[C@H](C)[C@H](N)C(=O)N1[C@H]2Nc3ccccc3[C@@]2(C/C=C(\C)CCC=C(C)C)C[C@H]1C(=O)N[C@@H](C)C(=O)O | 20 | > 300 | 35
11 | CC(C)=CCC/C(C)=C/C[C@]12C[C@@H](C(=O)N[C@@H](C)C(=O)O)N(C(=O)[C@@H](N)Cc3ccc(O)cc3)[C@H]1Nc1ccccc12 | 100 | > 300 | 25
12 | CC[C@H](C)[C@H](NC(=O)CN)C(=O)N[C@@H](Cc1ccccc1)C(=O)N1[C@H]2Nc3ccccc3[C@@]2(C/C=C(\C)CC/C=C(\C)CCC=C(C)C)C[C@H]1C(=O)N[C@@H](CCC(=O)O)C(=O)N[C@@H](CCC(N)=O)C(=O)O (H-GIF[X2]EQ-OH) | 20 | > 300 | 35
13 | CC(C)=CCC/C(C)=C/C[C@]12C[C@@H](C(=O)N[C@@H](C)C(=O)O)N(C(=O)[C@@H](N)Cc3cc4ccccc4[nH]3)[C@H]1Nc1ccccc12 | > 300 | > 300 | 15
14 | COC(=O)[C@@H]1C[C@]2(C/C=C(\C)CCC=C(C)C)c3ccccc3N[C@@H]2N1C(=O)[C@H](Cc1ccccc1)NC(C)=O | > 300 | > 300 | 10
15 | CC[C@H](C)[C@H](NC(=O)CN)C(=O)N[C@@H](Cc1ccccc1)C(=O)N1[C@H]2Nc3ccccc3[C@@]2(C/C=C(\C)CCC=C(C)C)C[C@H]1C(=O)N[C@@H](CCC(=O)O)C(=O)N[C@@H](CCC(N)=O)C(=O)O (H-GIF[X4]EQ-OH) | 0.3 | 1 | 
16 | CC(C)=CCC/C(C)=C/C[C@]12C[C@@H](C(N)=O)N(C(=O)[C@@H](N)Cc3ccccc3)[C@H]1Nc1ccccc12 | 50 | > 300 | 35
17 | CC(C)=CCC/C(C)=C/C[C@]12C[C@H]3C(=O)N[C@@H](Cc4ccccc4)C(=O)N3[C@H]1Nc1ccccc12 | > 300 | > 300 | 5
18 | CC(C)=CCC/C(C)=C/C[C@]12C[C@@H](C(=O)N[C@@H](CCC(=O)O)C(=O)O)N(C(=O)C(N)Cc3ccccc3)[C@H]1Nc1ccccc12 (single isomer, unassigned) | 8 | 20 | 60
19 | CC(C)=CCC/C(C)=C/C[C@]12C[C@@H](C(=O)N[C@@H](C)C(=O)O)N(C(=O)C(N)Cc3ccccc3)[C@H]1Nc1ccccc12 (single isomer, unassigned) | 3 | 60 | 70
20 | CC[C@H](C)[C@H](NC(=O)CN)C(=O)N[C@@H](Cc1ccccc1)C(=O)N1[C@H]2Nc3ccccc3[C@@]2(C/C=C(\C)CCCC(C)C)C[C@H]1C(=O)N[C@@H](CCC(=O)O)C(=O)N[C@@H](CCC(N)=O)C(=O)O (H-GIF[X1]EQ-OH) | 2 | 20 | 75
